From patent publication US6822100B2 (Bristol-Myers Squibb Company, priority 2001, dated 2004) come the findings set out here.

Molecules are shown by their SMILES. Where a name gives a salt, the structure may show the parent alone. A value given as a limit tells only on which side of the number the result lay.

As usually defined, the Ki is a measure of affinity in units of concentration, obtained from inhibition or displacement.

The target of the assay is T1, human serotonin transporters (Homo sapiens, UniProt P31645).
T1 construct: expressed in transfected cells; host or cells: HEK-293 (HEK-hSERT), membrane homogenates
T1 sequence (P31645 whole entry): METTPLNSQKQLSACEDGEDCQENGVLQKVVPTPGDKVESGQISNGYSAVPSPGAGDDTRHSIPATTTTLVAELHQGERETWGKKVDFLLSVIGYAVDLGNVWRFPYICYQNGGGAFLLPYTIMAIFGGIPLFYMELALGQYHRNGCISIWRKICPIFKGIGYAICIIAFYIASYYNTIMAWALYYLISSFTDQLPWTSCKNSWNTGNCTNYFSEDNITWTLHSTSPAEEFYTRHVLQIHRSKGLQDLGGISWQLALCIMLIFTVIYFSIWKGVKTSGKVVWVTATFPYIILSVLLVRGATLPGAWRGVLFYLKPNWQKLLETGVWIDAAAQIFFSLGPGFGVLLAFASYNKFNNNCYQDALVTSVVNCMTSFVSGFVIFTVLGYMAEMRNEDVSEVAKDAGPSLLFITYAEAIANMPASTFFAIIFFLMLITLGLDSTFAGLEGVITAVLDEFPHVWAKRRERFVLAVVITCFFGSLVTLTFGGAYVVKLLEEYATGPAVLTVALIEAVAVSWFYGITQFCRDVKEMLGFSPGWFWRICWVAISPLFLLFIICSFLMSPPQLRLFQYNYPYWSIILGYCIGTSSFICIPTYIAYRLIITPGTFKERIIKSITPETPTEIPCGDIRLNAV
The assay can be described thus: Serotonin Transporter Binding Assay. The following applies: HEK-hSERT cell membranes, 1 nM [3H]-citalopram, Cheng and Prusoff; read-out: SERT Ki. The procedure: HEK-293 cells that stably express human serotonin transporters (HEK-hSERT cells) were grown at 37° C. in 5% CO2 as a monolayer in medium consisting of EMEM supplemented with 10% fetal bovine serum and G418 sulfate (500 μg/ml). To prepare membranes for radioligand binding experiments, cells were rinsed twice with phosphate-buffered saline (138 mM NaCl, 4.1 mM KCl, 5.1 mM Na2PO4, 1.5 mM […], 11.1 mM glucose, pH 7.4). Cells were transferred from plates to polypropylene tubes (16×100 mm), centrifuged at 1,200×g for 5 min and were frozen at −80° C. until assay. Following centrifugation, pellets were resuspended by homogenization in buffer consisting of 50 mM Tris (pH 7.7 at 25° C.), 120 mM NaCl and 5 mM KCl and then centrifuged at 32,000×g for 10 min. Following centrifugation, supernatants were discarded and pellets were resuspended in buffer consisting of 50 mM Tris (pH 7.4 at 25° C.), 150 mM NaCl and 5 mM KCl. Membrane homogenates (200 μl/plate) were incubated with 1 nM [^3H]-citalopram (specific activity=85 Ci/mmol) and increasing concentrations of test compounds for 1 hr at 25° C. in a total volume of 250 μl. The assay buffer consisted of 50 mM Tris (pH 7.4 at 25° C.), 120 mM NaCl and 5 mM KCl (pH 7.4 with conc. HCl). Plates were incubated for 1 hr at 25° C., then filtered through 0.5% PEI treated Whatman GF/B filters using a Brandel cell harvester. Filters were washed three times with 3 ml of ice-cold tris wash buffer. Non-specific binding was defined with 10 μM fluoxetine. Amount of radioligand bound in the presence and absence of competitor was analyzed by plotting (−)log drug concentration versus the amount of radioligand specifically bound. The midpoint of the displacement curve (IC50, nM), signifies the potency. Ki values were calculated using the method of Cheng and Prusoff (1973).
`CNCC1CC1c1csc2ccccc12` (stereo not shown) [Example 168, (2-Benzo[b]thiophen-3-yl-cyclopropylmethyl)-methyl-amine]: the inhibition constant (Ki) lay in the range of 10 to 100 nM. With `c1ccc2c(C3CC3CN3CCCC3)csc2c1` (stereo not shown) [Example 172, 1-(2-Benzo[b]thiophen-3-yl-cyclopropylmethyl)-pyrrolidine], the inhibitory constant (Ki) was 100 to 1000 nM.

As to `N#Cc1ccc2[nH]nc(C3CC3CN3CCCC3)c2c1` (stereo not shown) [Example 166, 3-(2-Pyrrolidin-1-ylmethyl-cyclopropyl)-1H-indazole-5-carbonitrile], the inhibitory constant (Ki) was in the range of 100 to 1000 nM. `CCNC[C@H]1C[C@@H]1c1c[nH]c2cc(C(F)(F)F)ccc12` (racemic) [Example 156, Ethyl-[2-(6-trifluoromethyl-1H-indol-3-yl)-cyclopropylmethyl]-amine]: the Ki is 100 to 1000 nM. On to `CN(C)CCC1CC1c1c[nH]c2ccc(C#N)cc12` (stereo not shown) [Example 193, 3-[2-(2-Dimethylamino-ethyl)-cyclopropyl]-1H-indole-5-carbonitrile], for which the inhibition constant Ki was in the range of 1 to 10 nM. As to `CCN(C)CC1CC1c1csc2ccccc12` (stereo not shown) [Example 170, (2-Benzo[b]thiophen-3-yl-cyclopropylmethyl)-ethyl-methyl-amine], the Ki was in the range of 100 to 1000 nM.

As to `CCN(CC)CC1CC1c1csc2ccccc12` (stereo not shown) [Example 171, (2-Benzo[b]thiophen-3-yl-cyclopropylmethyl)-diethyl-amine], the inhibition constant (Ki) lay within 100 to 1000 nM. As for `CN(C)CC1CC1c1ccc2cc[nH]c2c1` (stereo not shown) [Example 191, [2-(1H-Indol-6-yl)-cyclopropylmethyl]-dimethyl-amine], the Ki fell in the range of 10 to 100 nM. Consider `CN(C)CC1CC1c1ccc2c(C#N)c[nH]c2c1` (stereo not shown) [Example 192, 6-(2-Dimethylaminomethyl-cyclopropyl)-1H-indole-3-carbonitrile], for which the inhibition constant Ki lay within 1 to 10 nM. As to `CCn1cc([C@H]2C[C@@H]2CN(C)C)c2cc(C#N)ccc21` [Example 189], the inhibition constant Ki was 1 to 10 nM. The value for `CN(C)CC1CC1c1ccc2[nH]cc(C#N)c2c1` (stereo not shown) [Example 151, 5-(2-Dimethylaminomethyl-cyclopropyl)-1H-indole-3-carbonitrile] was 1 to 10 nM; that for `C[N+](C)(C)C[C@H]1C[C@@H]1c1c[nH]c2ccc(C#N)cc12` [Example 187, S,S-Trans-2-[5-Cyanoindol-3-yl]-1-(trimethylammoniummethyl)cyclopropane trifluoroacetate] was less than 1 nM; that for `CN(C)CC1CC1c1csc2ccccc12` (single isomer, unassigned; (-)) [Example 190A, (−)-(2-Benzo[b]thiophen-3-yl-cyclopropylmethyl)-dimethyl-amine] was 100 to 1000 nM. On to `CCN(C)CC1CC1c1n[nH]c2ccc(C#N)cc12` (stereo not shown) [Example 164, 3-{2-[(Ethyl-methyl-amino)-methyl]-cyclopropyl}-1H-indazole-5-carbonitrile], for which the inhibitory constant (Ki) was in the range of 100 to 1000 nM. Consider `CN(Cc1ccccc1)C[C@H]1C[C@@H]1c1c[nH]c2cc(C(F)(F)F)ccc12` (racemic) [Example 157, Benzyl-methyl-[2-(6-trifluoromethyl-1H-indol-3-yl)-cyclopropylmethyl]-amine], for which the Ki lay in the range of 100 to 1000 nM. On to `CCN(CC)CC1CC1c1n[nH]c2ccc(C#N)cc12` (stereo not shown) [Example 165, 3-(2-Diethylaminomethyl-cyclopropyl)-1H-indazole-5-carbonitrile], for which the Ki lay in the range of 100 to 1000 nM. As to `CN(C)C[C@H]1C[C@@H]1c1cn(C)c2ccc(C#N)cc12` [Example 188], the Ki was in the range of 1 to 10 nM. The value for `CCN(CC)CCCC1CC1c1c[nH]c2ccc(C#N)cc12` (stereo not drawn) [Example 177, Trans-2-[5-cyanoindol-3-yl]1-(3-(N,N-diethylamino)propyl)cyclopropane] was 10 to 100 nM; that for `CNC[C@H]1C[C@@H]1c1c[nH]c2ccc(C(F)(F)F)cc12` (racemic) [Example 154, Methyl-[2-(5-trifluoromethyl-1H-indol-3-yl)-cyclopropylmethyl]-amine] was 10 to 100 nM.
